The values that follow come from ChEMBL document CHEMBL1130802, “Design and synthesis of a new type of non steroidal human aromatase inhibitors” (Bioorg Med Chem Lett, 1998).

Assay [1] concerns the target T1, Aromatase (Homo sapiens, UniProt P11511).
T1 sequence (P11511 whole entry): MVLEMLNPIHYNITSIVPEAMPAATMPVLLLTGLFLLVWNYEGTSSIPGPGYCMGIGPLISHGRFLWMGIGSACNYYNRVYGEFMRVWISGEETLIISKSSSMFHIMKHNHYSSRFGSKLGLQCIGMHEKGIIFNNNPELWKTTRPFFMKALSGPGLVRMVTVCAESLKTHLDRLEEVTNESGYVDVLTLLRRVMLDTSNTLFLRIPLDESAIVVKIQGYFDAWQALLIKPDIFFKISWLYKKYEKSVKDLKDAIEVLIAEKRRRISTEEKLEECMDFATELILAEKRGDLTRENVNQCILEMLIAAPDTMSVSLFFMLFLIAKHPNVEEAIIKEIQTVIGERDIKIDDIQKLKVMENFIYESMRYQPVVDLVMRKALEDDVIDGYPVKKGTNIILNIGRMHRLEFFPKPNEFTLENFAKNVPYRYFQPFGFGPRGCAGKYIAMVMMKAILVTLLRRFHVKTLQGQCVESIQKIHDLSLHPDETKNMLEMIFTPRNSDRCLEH
Description: Inhibition constant for human aromatase cytochrome P450 19A1 activity

Assay [2] deals with T1, Aromatase. This is another data set of the same source.
Description: Inhibition of human aromatase cytochrome P450 19A1 activity

`O=C1/C(=C\c2ccncc2)C(c2ccccc2)c2ccccc21` (configuration not stated) yielded an inhibition constant (Ki) at Aromatase [1] of 10.3 nM. For the same molecule, the IC50 on Aromatase [2] came out at 800 nM.
